Experimental data published in patent US20250170252A1, “QUINONE PROTECTED FORMS AND CONJUGATES” (CAMBRIDGE ENTERPRISE LIMITED, priority 2022, published 2025).

How the values were obtained:
Assay type in all cases: cell-based
HL-60 cells [1] = test: N-acetyl cysteine cytotoxicity assay
Procedure: For assays involving cytotoxicity of β-lapachone derivatives with and without antioxidant N—-acetyl cysteine, HL-60 cells were plated into 24 well plates at a concentration of 2.5×10^5 cells/mL in 450 μL. To each well was then added 25 μL of drug diluted in PBS to obtain the correct in-plate drug concentration, and 25 μL of PBS or a stock of N-acetyl cysteine at 12 mM in PBS. DMSO was maintained at an in-plate concentration of 0.1%. After 96 h incubation, toxicity was assessed by counting of live cells using the Trypan Blue exclusion method with a Countess II Automated Cell Counter (ThermoFisher Scientific) according to the manufacturer's instructions. Cell viability was determined by division of average live cell number of treated wells by average live cell number for control wells treated with 0.1% DMSO. […] Values recorded are the mean of three repeat wells, with error bars representing the standard error of the mean for each concentration tested.

HeLa = test: Toxicity with/without β-glucuronidase, HeLa; details: Homo sapiens, read-out: IC50 β-lapachone, 1
Procedure: (§1) Assays assessing cytotoxicity of β-lapachone and derivatives were performed by CellTiter-Blue assay (Promega) according to the manufacturer's instructions. Briefly, adherent cancer-cell lines were plated at 20,000 cells/well in 96 well plates or suspension cell lines were plated at a concentration of 2×10^5 cells/mL in 24 well plates. Compound stocks in media were made by dilution of DMSO stocks containing the compound of interest to obtain a final in-plate DMSO concentration of only 0.1%. Incubation was performed for 48 h. Following incubation, media was replaced with media containing CellTiter-Blue (Promega) in 1:10 dilution and the plates were incubated for 1.5-4 h. The fluorescence of the plates was recorded (excitation 555 nm, emission 585 nm, MiniMax i3x Reader, Molecular Devices).
Cell viability was calculated by division of the fluorescence intensity of treated wells by that of the calculated average fluorescence intensity of replicate negative control wells containing cells with 0.1% DMSO only. Values and reported error bars represent the mean and standard error of the mean of three triplicate repeats for each concentration tested. IC50 values were calculated using GraphPad Prism 8 software.
The potential of compound 37a, glucuronide-PHB-BL, as a prodrug was investigated. As discussed above, at physiological pH the compound has a relatively slow-release rate. Toxicity of Gluc-PHB-BL 37a was tested against a range of cell lines with and without added β-glucuronidase. Addition of the enzyme mimics conditions of the solid tumour environment.

HL-60 cells [2] = test: Lysosomal inhibition assay with small molecule prodrugs; details: HL-60, NH4Cl at 30 mM
Procedure: Assays to assess the effect of lysosomal activity on prodrugs were performed as follows: HL-60 cells were plated into 96 well plates at a concentration of 2.5×10^5 cells/mL in 180 μL media. Cells were treated with 10 μL of a stock of NH4Cl in PBS (to obtain an in-plate concentration of 3 or 30 mM), 10 μL of a dilution of a DMSO stock of E64d in PBS (to obtain an in-plate concentration of 30 μM), PBS only, or a dilution of DMSO in PBS. Cells were incubated for 30 min. Following this, 10 μL of a stock of test compound made by dilution of a DMSO stock into media was added. DMSO was present in-plate at a maximum of 0.2%. Cells were incubated overnight for 16 h. Following incubation, media was replaced with media containing CellTiter-Blue (Promega) in 1:4 dilution and the plates were incubated for 6 h. The fluorescence of the plates was recorded (excitation 555 nm, emission 585 nm, MiniMax i3x Reader, Molecular Devices). Cell viability was calculated by division of the fluorescence intensity of treated wells by that of the calculated average fluorescence intensity of the relevant negative control wells. Values and reported error bars represent the mean and standard error of the mean of three triplicate repeats for each concentration tested.

[3] = tested on: SKBR3 (breast cancer cell line); test: Viability assay (CellTiter-Blue), SKBR3; details: Homo sapiens, SK-BR-3
Procedure: as §1, with “MiniMax i3x” left out, “Devices). Cell viability was calculated by division of the fluorescence intensity of treated wells by that of the calculated average fluorescence intensity of replicate negative control wells containing cells with 0.1% DMSO only. Values and reported error bars represent the mean and standard error of the mean of three triplicate repeats for each concentration tested.” for “Devices).”

ovine blood = test: Methaemoglobin analysis in sheep's blood; details: after 1 h of incubation
Procedure: Defibrinated Oxoid™ sheep's blood (ThermoScientific) was diluted to a 5% v/v suspension in PBS pH 7.4. In a 96 well microtiter plate, 150 μL of blood suspension was added to 50 μL of serially diluted compound in PBS containing a 4× stock of each compound of interest. Serial dilution of compounds from DMSO stocks into PBS was performed to achieve an in-plate DMSO concentration of 0.1%. PBS buffer alone was used as a negative control. Three replicates were performed for each compound concentration analysed. The plate was incubated for the specified time at 37° C. The plate was then centrifuged at 3,500 rpm for 5 min. The supernatant was removed and cells lysed by resuspension in 100 μL of a solution of Triton-X-100 (1%) in PBS. Following this 80 μL of lysed cell contents were transferred to a second microtiter plate for UV measurement. To determine methaemoglobin increase, UV absorbance was measured immediately at 630 nm (MiniMax i3x Imager, Molecular Devices). Methaemoglobin increase was determined by (A630−A^0630)/(A^0630)×100, where A630 is the absorbance of the test well at 630 nm, and A^0630 is the absorbance of the negative control at 630 nm. Mean values and standard error of the mean of three independent replicates are plotted.

## CC1(C)CCC2=C(O1)c1ccccc1C(=O)C2=O [Compound 1, β-lapachone, reference compound]
HL-60 cells [1]; HL-60
  change of IC50 upon NAC addition: more than doubled
HL-60 cells [1]; Homo sapiens, HL-60, HL-60, without NAC
  IC50: 470 ± 260 nM
HeLa
  IC50: 4260 nM
HL-60 cells [2]
  toxicity with NH4Cl: increase in toxicity
[3]
  IC50: 2800 nM
Ovine blood
  lowest dose concentration at which methaemoglobin formation is detectable: 10 µM
